From US5688771A, “Lipophilic oligopeptides with immunomodulating activity” (priority 1993, dated 1997)
“Also recorded” adds a separate entry of the source.

Legend:
[1] = tested on: antibody producing cells (SRBC antigen); test: Plaque forming assay (PFC) in spleen cells of SRBC-immunized mice; format: in vivo; details: for Plaque Assay, PFC relative to control (100%) / Plaque Assay, PFC per 10^6 spleen cells: mice, 10 mg/kg i.p.; for Plaque Assay, PFC per 10^6 spleen cells: five days after injections; for Immunomodulating activity (in words): plaque-forming assay, Table 1
[2] = tested on: IgM antibody against SRBC antigen; test: Enzyme immunoassay of IgM antibody in blood of SRBC-immunized mice; format: in vivo
Procedure: Outbred CD1 mice were immunized with 0.1% volume for volume sheep red blood cell antigen suspended in saline. The mice were injected intraperitoneally with 0.5 ml, suspension of approximately 2×10^7 cells.
The mice were injected shortly thereafter with a suspension of an immunomodulator of the invention. The immunomodulator dose was a 0.23 ml of a 1 mg/ml suspension in phosphate buffered saline. The injected dose was 10 mg/kg. The second injection was also intraperitoneal.
The mice were killed five days after injections. Blood samples were taken for analysis of immunoglobulin. The determination was made by enzyme immunoassay using an anti μ-horseradish peroxidase conjugate. The spleen was removed, transferred to a petri dish containing 2 ml of Hank's balanced salt solution and 10 mMolar Hepes buffer (HBSS-HEPES). The spleen was gently crushed by the use of forceps, and the cell suspension was filtered through cotton gauze to eliminate cellular debris. The filtered suspension was brought to volume (5 ml) by the addition of HBSS-HEPES, the cells counted, and the suspension diluted to a final concentration of 5×10^6 cells/ml.

[3] = tested on: Total T and B cells in splenocytes; test: Splenic T and B cell enumeration by FACS; format: in vivo, C57BL/6 mice; details: for % Cells/Spleen ± SD, B Cells / % Cells/Spleen ± SD, T Cells: 50 mg/kg/day i.p. every other day for 4 injections, n = 5; for % Cells/Spleen ± SD, B Cells: anti-Ly5; for % Cells/Spleen ± SD, T Cells: anti-Thy 1.2; for Effect on B cell counts (in words) / Effect on T cell counts (in words): 50 mg/kg, splenocytes, Hydrochloride
Text: Splenic cells were enumerated with the following assay. Dispersed splenocytes were reacted with fluorescein isothiocyanate-labelled murine monoclonal antibody anti-Ly5 for B cell enumeration and phycoerythrin-labelled monoclonal antibody anti-Thy 1.2 for T cell counts. The labelled cells were then enumerated with a fluorescence-activated cell sorter (FACS) (EPICS-C, Coulter Corp., Hialeah, Fla.).

[4] = tested on: YAC-1 tumor cells; test: Natural killer cell activity, 4 hr chromium release assay; details: for % Chromium Release ± SD, Effector:Target Ratio 25:1 / % Chromium Release ± SD, Effector:Target Ratio 50:1: 50 mg/kg/day i.p. every other day for 4 injections, splenocytes 24 hr after final treatment, n = 5
Procedure: (§1) Mice were administered a 50 mg/kg dose of the immunomodulators of the invention and were subsequently sacrificed. The spleens were harvested and splenocytes isolated. Immunologic assays were conducted on those splenocytes that were taken 24 hours after final treatment. These cells were subjected to tests to determine macrophage and natural killer (NK) cell function.
Three week-old C57 BL/6 mice were procured and quarantined for 24 to 48 hours prior to treatment. The five oligopeptides described in tables 2, 3 and 4 were admixed with a 0.4% water solution of carboxymethylcellulose. The solutions were stored at 4° C. until use. Ribavarin (1-β-D-ribofuranosyl-1,2,4-triazole-carboxamide) was used in each subsequent experiment as a control.
(§2) Animals were treated with a 50 mg/kg/day dosage of one of the tested compound and were killed 24 hr after the final treatment and their spleens removed. […] Red blood cells were removed by haemolytic lysis.
Natural killer (NK) activity of murine cells was determined by testing splenic cells for their ability to lyse YAC-1 tumor cells in a conventional 4 hr chromium release assay as an indicator of NK was expressed as: % chromium release=(experimental counts per minute (cpm)-background cpm)/(maximum cpm-background cpm)

[5] = tested on: Macrophage function (IL-1 activity in splenocytes); test: Macrophage function, IL-1 activity in splenocytes by [3H]thymidine uptake in PHA-stimulated thymocytes; details: for Mean CPM of Treated Thymocytes ± SD: 50 mg/kg/day i.p. every other day for 4 injections, splenocytes 24 hr after final treatment, n = 5; for Effect on macrophage function (in words): 50 mg/kg, splenocytes 24 hours after final treatment, Hydrochloride
Procedure: as §1
Ribavarin (1-β-D-ribofuranosyl-1,2,4-triazole-carboxamide) was used in each subsequent experiment as a control.
as §2
Macrophage function was assessed by an interleukin-1 (IL-1) assay that utilizes responsiveness of mouse thymocytes to phytohemagglutin (PHA) which is dependent on IL-1 for its reactivity.
The cells were incubated 72 hr at 37° C. During the last 4 hr of the incubation, the cells were pulsed with [^3 H] thymidine (1 μCi/well). The cells were then harvested and [H^3 ] thymidine incorporation was determined using a direct counter.

[6] = tested on: murinecytomegalovirus (MCMV) (Smith strain); test: Mortality in MCMV-infected mice; format: in vivo, Swiss Webster female mice; details: MCMV-infected mice
[7] = tested on: murinecytomegalovirus (MCMV) (Smith strain); test: MCMV titers in tissues; format: in vivo, Swiss Webster female mice; details: 25 mg/kg
[8] = Toxicity controls: mortality and weight gain in uninfected mice; format: in vivo; details: mouse, in vivo, 25 mg/kg
Procedure: Groups of 5 uninfected mice were treated the same way and at the same times as described above. These animal were checked daily for survival. Their weigths were taken before the first treatment and 24 hours after the last treatment to determine drug effect on weight gain.

[9] = 25 mg/kg i.p. once daily for 5 days from 24 hours after virus, 21 days

Compound	Plaque Assay, PFC relative to control (100%) ([1]; Experiment 5) [%]	Plaque Assay, PFC per 10^6 spleen cells ([1]; Experiment 5) [PFC per 10^6 spleen cells]	Immunomodulating activity (in words) [1]	Enzyme Immunoassay, IgM antibody relative to control (100%) ([2]; Experiment 5, 10 mg/kg i.p.) [%]	% Cells/Spleen ± SD, B Cells [3] [%]	% Cells/Spleen ± SD, T Cells [3] [%]	Effect on B cell counts (in words) [3]	Effect on T cell counts (in words) [3]	% Chromium Release ± SD, Effector:Target Ratio 25:1 [4] [%]	% Chromium Release ± SD, Effector:Target Ratio 50:1 [4] [%]	Mean CPM of Treated Thymocytes ± SD [5] [CPM]	Effect on macrophage function (in words) [5]	Plaque Assay, PFC relative to control (100%) ([1]; Experiment 8) [%]	Plaque Assay, PFC per 10^6 spleen cells ([1]; Experiment 8) [PFC per 10^6 spleen cells]	Enzyme Immunoassay, IgM antibody relative to control (100%) ([2]; Experiment 8, 10 mg/kg i.p.) [%]	other results
CCCCCCCCCCCCCCCCCCN[C@H](C(=O)N[C@H](CCC(N)=O)C(=O)O)C(C)C.Cl [BCH 1317, Octadecyl L-Valyl D-Glutamine Hydrochloride]	–	–	–	–	–	–	–	–	–	–	–	–	–	–	–	Plaque Assay, PFC relative to control (100%) ([1]; Experiment 9): 149%; Plaque Assay, PFC per 10^6 spleen cells ([1]; Experiment 9): 750 ± 191 PFC per 10^6 spleen cells; Enzyme Immunoassay, IgM antibody relative to control (100%) ([2]; Experiment 9, 10 mg/kg i.p.): 189%
CCCCCCCCCCCCCCCCCCOC(=O)CC[C@@H](NC(=O)[C@H](C)N)C(=O)O.Cl [BCH-524, γ-Octadecyl L-Alanyl D-Glutamate Hydrochloride]	58	245 ± 90	immunosuppressors	80	33 ± 10.2	35 ± 9.6	suppressive; also recorded: suppressed	suppressive; also recorded: suppressed	9.8 ± 3.6	14.3 ± 1.9	5491 ± 1269	somewhat stimulatory; also recorded: macrophage stimulation	–	–	–	Effect on natural killer (NK) cell activity (in words) ([4]; 50 mg/kg, splenocytes 24 hours after final treatment, Hydrochloride): marginally suppressive; also recorded: marginal natural killer cell suppression
CCCCCCCCCCCCCCCCCCOC(=O)[C@@H](CCC(=O)O)NC(=O)[C@H](C)N.Cl [BCH-526, α-Octadecyl L-Alanyl D-Glutamate Hydrochloride]	77	325 ± 300	immunosuppressors	82	43 ± 1.4	40 ± 2.4	increase % B cells; also recorded: increased B cell counts	suppressing T cells; also recorded: suppressed T cell counts	12.8 ± 2.1	17.2 ± 3.3	3413 ± 206	moderately inhibitory; also recorded: moderate macrophage suppression	–	–	–	–
CCCCCCCCCCCCCCCCCCNC(=O)CC[C@@H](NC(=O)[C@H](C)N)C(N)=O.Cl [BCH-1316, L-Alanyl D-Isoglutamyl Octadecylamine Hydrochloride]	–	–	immunostimulants	–	–	–	–	–	–	–	–	–	153	759 ± 252	186	–
Nc1nc(O)c2ncn(COC(CO)CO)c2n1 [Ganciclovir, reference compound]	–	–	–	–	–	–	–	–	–	–	–	–	–	–	–	Survivors (%) [6, 9]: 100%; Survivors/total [6, 9]: 10/10; Mean day to death ([6]; 25 mg/kg i.p. once daily for 5 days, of mice that died on or before day 21): > 21 days; Virus titer in Liver ([7]; Day 3): 2.6±0.2 Log10 CCID50/qram; Virus titer in Lung ([7]; Day 3): < 2.5±0.0 Log10 CCID50/qram; Virus titer in salivary gland ([7]; Day 3): 3.1±0.6 Log10 CCID50/qram; Virus titer in spleen ([7]; Day 3): 5.7±0.3 Log10 CCID50/qram; Virus titer in Liver ([7]; Day 6): 3.3±0.8 Log10 CCID50/qram; Virus titer in Lung ([7]; Day 6): 3.5±0.6 Log10 CCID50/qram; Virus titer in salivary gland ([7]; Day 6): 3.3±0.8 Log10 CCID50/qram; Virus titer in spleen ([7]; Day 6): 3.6±0.9 Log10 CCID50/qram; Survivors (%) [8]: 100%; Survivors/total [8]: 5/5
Octadecyl L-Alanyl D-Isoglutamyl γ-Glycine Hydrochloride [BCH-1315]	–	–	immunostimulants	–	–	–	–	–	–	–	–	–	204	1012 ± 207	202	–
